Patent publication US5512553A, “7-(substituted)-8-(substituted)-9-(substituted amino)-6-demethyl-6-deoxytetracyclines” (American Cyanamid Company, priority 1995, dated 1996)
Values after ≈ are worked out from the molar mass of the structure shown. Where a name gives a salt, the structure may show the parent alone. Read-outs that look alike come from different tables or passages of the source.

Key:
E. coli UBMS 88-1 (tetB) = experiment: microbe, parasite or virus in culture; assay type: cell-based; settings: Escherichia coli, 18 h
Description: (§1) Method for In Vitro Antibacterial Evaluation (Table I)
(§2) The minimum inhibitory concentration (MIC), the lowest concentration of the antibiotic which inhibits growth of the test organism, is determined by the agar dilution method using Muller-Hinton II agar (Baltimore Biological Laboratories). An inoculum density of 1-5×10^5 CFU/ml and an antibiotic concentration (32-≤0.015 μg/ml) is used. The plates are incubated for 18 hours at 35° C. in a forced air incubator. The test organisms comprise strains sensitive to tetracycline and genetically defined strains that are resistant to tetracycline, due to inability to bind bacterial ribosomes (tetM).

E. coli UBMS 89-1 (tetM) = experiment: microbe, parasite or virus in culture; assay type: cell-based; settings: Escherichia coli, 18 h
Description: as §1, §2

[1] = test system: S. aureus UBMS 88-5 (tetM); experiment: microbe, parasite or virus in culture; assay type: cell-based; settings: Staphylococcus aureus, 18 h
Description: as §1, §2

[2] = test system: S. aureus UBMS 88-7 (tetK); experiment: microbe, parasite or virus in culture; assay type: cell-based; settings: Staphylococcus aureus, 18 h
Description: as §1, §2

[3] = test system: S. aureus UBMS 90-1 (tetM); experiment: microbe, parasite or virus in culture; assay type: cell-based; settings: Staphylococcus aureus, 18 h
Description: as §1, §2

[4] = test system: S. aureus UBMS 90-2 (tetM); experiment: microbe, parasite or virus in culture; assay type: cell-based; settings: Staphylococcus aureus, 18 h
Description: as §1, §2

E. coli ATCC 25922 = experiment: In vitro antibacterial evaluation, MIC by agar dilution; assay type: cell-based; settings: Escherichia coli
Description: as §1, §2

[5] = test system: E. coli UBMS 88-2 (sensitive); experiment: as above; assay type: cell-based; settings: Escherichia coli
Description: as §1, §2

[6] = test system: E. coli UBMS 89-2 (sensitive); experiment: as above; assay type: cell-based; settings: Escherichia coli, Muller-Hinton II agar, 18 hours at 35° C.
Description: as §1, §2

Enteroc. spp. 12201 = experiment: as above; assay type: cell-based
Description: as §1, §2

[7] = test system: S. aureus ATCC 29213 (sensitive); experiment: as above; assay type: cell-based; settings: Staphylococcus aureus, ATCC29213; agar dilution, Muller-Hinton II agar, 18 hours at 35° C.; S. aureus ATCC 29213 (sensitive); read-out: MIC
Description: as §1, §2

[8] = test system: S. aureus IVES 1983 (MP) (meth. resistant); experiment: as above; assay type: cell-based; settings: Staphylococcus aureus
Description: as §1, §2

[9] = test system: S. aureus IVES 2943 (meth. resistant); experiment: as above; assay type: cell-based; settings: Staphylococcus aureus
Description: as §1, §2

[10] = test system: S. aureus SMITH (MP) (sensitive); experiment: as above; assay type: cell-based; settings: Staphylococcus aureus
Description: as §1, §2

[11] = test system: S. aureus UBMS 88-4 (sensitive); experiment: as above; assay type: cell-based; settings: Staphylococcus aureus
Description: as §1, §2

[12] = test system: S. aureus UBMS 90-3 (sensitive); experiment: as above; assay type: cell-based; settings: Staphylococcus aureus
Description: as §1, §2

S. faecal. ATCC 29212 = experiment: as above; assay type: cell-based
Description: as §1, §2

S. haemol. AVAH 88-3 = experiment: as above; assay type: cell-based
Description: as §1, §2

[13] = test system: S30 extract from E. coli strain MRE 600 (tetracycline sensitive); experiment: E. coli in vitro cell free protein translation system, Wild Type S30; assay type: biochemical; settings: for % Inhibition Wild Type S30: 35S-methionine incorporation, 30 minutes at 37° C.
Excerpt: (§3) E. coli in Vitro protein Translation System (Table II)
(§4) An in vitro, cell free, protein translation system using extracts from E. coli strain MRE 600 (tetracycline sensitive) and a derivative of MRE 600 containing the tetM determinant has been developed based on literature methods J. M. Pratt, Coupled Transcription-translation in Prokaryotic Cell-free Systems, Transcription and Translation, a Practical Approach, (B. D. Hames and S. J. Higgins, eds) p. 179-209, IRL Press, Oxford-Washington, 1984!.
(§5) Using the system described above, the tetracycline compounds of the present invention are tested for their ability to inhibit protein synthesis in vitro. Briefly, each 10 μl reaction contains S30 extract (a whole extract) made from either tetracycline sensitive cells or an isogenic tetracycline resistant (tetM) strain, low molecular weight components necessary for transcription and translation (i.e., ATP and GTP), a mix of 19 amino acids (no methionine), ^35 S labeled methionine, DNA template (either pBR322 or pUC119), and either DMSO (control) or the novel tetracycline compound to be tested ("novel TC") dissolved in DMSO.
(§6) The reactions are incubated for 30 minutes at 37° C. Timing is initiated with the addition of the S30 extract, the last component to be added. After 30 minutes, 2.5 μl of the reaction is removed and mixed with 0.5 ml of 1N NaOH to destroy RNA and tRNA. Two to three ml of 25% trichloroacetic acid is added and the mixture incubated at room temperature for 15 minutes. The trichloroacetic acid precipitated material is collected on Whatman GF/C filters and washed with a solution of 10% trichloroacetic acid. The filters are dried and the retained radioactivity, representing incorporation of ^35 S-methionine into polypeptides, is counted using standard liquid scintillation methods.
(§7) The percent inhibition (P.I.) of protein synthesis is determined to be: [formula]

[14] = test system: S30 extract from derivative of E. coli MRE 600 containing the tetM determinant; experiment: E. coli in vitro cell free protein translation system, TetM S30; assay type: biochemical; settings: for % Inhibition TetM S30: 35S-methionine incorporation, 30 minutes at 37° C.
Excerpt: as §3, §4, §5, §6, §7

[15] = ATCC25922, agar dilution, Muller-Hinton II agar, 18 hours at 35° C., E. coli ATCC 25922, read-out: MIC
[16] = agar dilution, Muller-Hinton II agar, 18 hours at 35° C., S. aureus SMITH (MP) (sensitive), read-out: MIC
[17] = agar dilution, Muller-Hinton II agar, 18 hours at 35° C., S. aureus UBMS 88-4 (sensitive), read-out: MIC
[18] = agar dilution, Muller-Hinton II agar, 18 hours at 35° C., S. haemol. AVAH 88-3, read-out: MIC
[19] = agar dilution, Muller-Hinton II agar, 18 hours at 35° C., Enteroc. spp. 12201, read-out: MIC
[20] = agar dilution, Muller-Hinton II agar, 18 hours at 35° C., S. faecal. ATCC 29212, read-out: MIC
[21] = agar dilution, Muller-Hinton II agar, 18 hours at 35° C., S. aureus UBMS 90-3 (sensitive), read-out: MIC

SMILES | MIC (E. coli UBMS 88-1 (tetB)) | MIC (E. coli UBMS 89-1 (tetM)) | MIC [1] | MIC [2] | MIC [3] | MIC [4] | MIC (E. coli ATCC 25922; [15]) | MIC [6] | MIC (Enteroc. spp. 12201; 18 h) | MIC [7] | MIC ([8]; 18 h) | MIC ([9]; 18 h) | MIC [10, 16] | MIC [11, 17] | MIC (S. faecal. ATCC 29212; 18 h) | MIC (S. haemol. AVAH 88-3; [18]) | MIC (E. coli ATCC 25922; ATCC25922, 18 h) | MIC ([5]; 18 h) | MIC (Enteroc. spp. 12201; [19]) | MIC (S. faecal. ATCC 29212; [20]) | also measured
CN(C)[C@@H]1C(O)=C(C(N)=O)C(=O)[C@@]2(O)C(O)=C3C(=O)c4c(O)cc(Cl)c(N)c4CC3CC12 (some centres unmarked) [Compound C, 7-Amino-8-chloro-4-(dimethylamino)-1,4-4a,5,5a,6,11,12a-octahydro-3,10,12,12a-tetrahydroxy-1,11-dioxo-2-naphthacenecarboxamide hydrochloride] | > 32 µg/mL | 32 µg/mL | 32 µg/mL | > 32 µg/mL | 32 µg/mL | 8 µg/mL | 2 µg/mL | 4 µg/mL | 32 µg/mL | 0.12 µg/mL | > 32 µg/mL | > 32 µg/mL | 0.25 µg/mL | 0.5 µg/mL | 8 µg/mL | 1 µg/mL | – | – | – | – | MIC ([5]; agar dilution, Muller-Hinton II agar, 18 hours at 35° C., E. coli UBMS 88-2 (sensitive), read-out: MIC): 2 µg/mL; MIC ([12]; 18 h): 0.12 µg/mL
CN(C)[C@@H]1C(O)=C(C(N)=O)C(=O)[C@@]2(O)C(O)=C3C(=O)c4c(O)cc(Cl)cc4CC3CC12 (some centres unmarked) [Compound E, 8-Chloro-4-(dimethylamino)-1,4,4a,5,5a,6-11,12a-octahydro-3,10,12,12a-tetrahydroxy-1,11-dioxo-2-naphthacenecarboxamide sulfate] | > 32 µg/mL | 16 µg/mL | 2 µg/mL | 4 µg/mL | 2 µg/mL | 1 µg/mL | – | 16 µg/mL | – | 0.03 µg/mL | 4 µg/mL | 4 µg/mL | 0.12 µg/mL | – | – | 0.5 µg/mL | 8 µg/mL | 16 µg/mL | 1 µg/mL | 2 µg/mL | MIC ([11]; 18 h): 0.25 µg/mL
CN(C)[C@@H]1C(O)=C(C(N)=O)C(=O)[C@@]2(O)C(O)=C3C(=O)c4c(O)cc(Cl)c([N+]#N)c4CC3CC12 (stereo partly drawn) [D, 8-(Aminocarbonyl)-2-chloro-10-(dimethylamino)-5,6a,10,10a,11,11a,12-octahydro-5,7-dioxo-l-naphthacenediazonium chloride] | > 32 µg/mL | 32 µg/mL | 4 µg/mL | 8 µg/mL | 4 µg/mL | 2 µg/mL | 16 µg/mL | 32 µg/mL | – | 0.12 µg/mL | – | – | 0.5 µg/mL | – | – | – | – | 32 µg/mL | 2 µg/mL | 2 µg/mL | MIC ([8]; agar dilution, Muller-Hinton II agar, 18 hours at 35° C., S. aureus IVES 1983 (MP) (meth. resistant), read-out: MIC): 16 µg/mL; MIC ([9]; agar dilution, Muller-Hinton II agar, 18 hours at 35° C., S. aureus IVES 2943 (meth. resistant), read-out: MIC): 16 µg/mL; MIC (S. haemol. AVAH 88-3; 18 h): 1 µg/mL
CN(C)[C@@H]1C(O)=C(C(N)=O)C(=O)[C@@]2(O)C(O)=C3C(=O)c4c(cc(Cl)c(N)c4O)CC3CC12 (some centres unmarked) [G, 9-Amino-8-chloro-4-(dimethylamino)-1,4,-4a,5,5a,6,11,12a-octahydro-3,10,12,12a-tetrahydroxy-1,11-dioxo-2-naphthacenecarboxamide] | > 32 µg/mL | – | 1 µg/mL (≈ 2.16 µM) | 2 µg/mL (≈ 4.31 µM) | 1 µg/mL (≈ 2.16 µM) | 0.25 µg/mL (≈ 0.539 µM) | – | 4 µg/mL (≈ 8.62 µM) | 2 µg/mL (≈ 4.31 µM) | < 0.015 µg/mL | 8 µg/mL (≈ 17.2 µM) | 8 µg/mL (≈ 17.2 µM) | < 0.015 µg/mL | < 0.015 µg/mL | 0.25 µg/mL (≈ 0.539 µM) | 0.12 µg/mL (≈ 0.259 µM) | 1 µg/mL (≈ 2.16 µM) | 4 µg/mL (≈ 8.62 µM) | – | – | MIC [12, 21]: < 0.015 µg/mL
COC(=O)Nc1c(Cl)cc2c(c1O)C(=O)C1=C(O)[C@]3(O)C(=O)C(C(N)=O)=C(O)[C@@H](N(C)C)C3CC1C2 (stereo partly drawn) [I, 7S-(7alpha, 10aalpha)!- 9-(Aminocarbonyl)-3-chloro-7-(dimethylamino)-5,5a,6-6a,7,10,10a,12-octahydro-1,8,10a,11-tetrahydroxy-10,12-dioxo-2-naphthacenyl!-carbamic acid methyl ester] | > 32 µg/mL | 8 µg/mL (≈ 15.3 µM) | 0.5 µg/mL (≈ 0.958 µM) | 2 µg/mL (≈ 3.83 µM) | 0.5 µg/mL (≈ 0.958 µM) | 0.5 µg/mL (≈ 0.958 µM) | – | 16 µg/mL (≈ 30.7 µM) | 2 µg/mL (≈ 3.83 µM) | < 0.015 µg/mL | 4 µg/mL (≈ 7.66 µM) | 4 µg/mL (≈ 7.66 µM) | – | – | 0.5 µg/mL (≈ 0.958 µM) | – | 8 µg/mL (≈ 15.3 µM) | – | – | – | MIC ([10]; 18 h): 0.06 µg/mL (≈ 0.115 µM); MIC ([11]; 18 h): 0.06 µg/mL (≈ 0.115 µM); MIC ([12]; 18 h): 0.06 µg/mL (≈ 0.115 µM); MIC (S. haemol. AVAH 88-3; 18 h): 0.5 µg/mL (≈ 0.958 µM)
CN(C)c1ccc(O)c2c1C[C@H]1C[C@H]3[C@H](N(C)C)C(O)=C(C(N)=O)C(=O)[C@@]3(O)C(O)=C1C2=O [L, Minocycline hydrochloride, reference compound] | 16 µg/mL | 8 µg/mL | 4 µg/mL | – | 4 µg/mL | 4 µg/mL | 0.5 µg/mL | 1 µg/mL | – | ≤ 0.015 µg/mL | 4 µg/mL | 4 µg/mL | 0.03 µg/mL | 0.03 µg/mL | – | – | – | 0.25 µg/mL | 8 µg/mL | 1 µg/mL | MIC [12, 21]: 0.03 µg/mL; % Inhibition Wild Type S30 ([13]; Conc. 0.1 mg/ml): 66%; % Inhibition Wild Type S30 ([13]; Conc. 0.3 mg/ml, hydrochloride): 91%; % Inhibition Wild Type S30 ([13]; Conc. 1.0 mg/ml): 90%; inhibition of protein synthesis, in words ([13]; cell-free extracts from tetracycline susceptible strain MRE600): inhibited; % Inhibition TetM S30 ([14]; Conc. 0.1 mg/ml): 0%; % Inhibition TetM S30 ([14]; Conc. 0.3 mg/ml): 0%; % Inhibition TetM S30 ([14]; Conc. 1.0 mg/ml, hydrochloride): 19%; % Inhibition TetM S30 ([14]; Conc. 1.0 mg/ml, listed as minocycline, hydrochloride): less than 20%; inhibition of protein synthesis, in words ([14]; cell-free extracts from strain MRE600 (tetM)): resistant
